ChEMBL document CHEMBL1909046, “DrugMatrix in vitro pharmacology data”
pIC50, pKi: −log10 of the molar value.

Experiments:
[1] = target: T1, Alpha-1A adrenergic receptor (Rattus norvegicus, UniProt P43140); test: DRUGMATRIX: Alpha-1A adrenergic receptor radioligand binding (ligand: prazosin); format: cell membranes, Wistar, Submaxillary gland, Membrane; conditions: Not Active = under 50% inhibition at 10 µM; for pIC50: read-out: IC50; for pKi: read-out: Ki
T1 sequence (P43140 whole entry): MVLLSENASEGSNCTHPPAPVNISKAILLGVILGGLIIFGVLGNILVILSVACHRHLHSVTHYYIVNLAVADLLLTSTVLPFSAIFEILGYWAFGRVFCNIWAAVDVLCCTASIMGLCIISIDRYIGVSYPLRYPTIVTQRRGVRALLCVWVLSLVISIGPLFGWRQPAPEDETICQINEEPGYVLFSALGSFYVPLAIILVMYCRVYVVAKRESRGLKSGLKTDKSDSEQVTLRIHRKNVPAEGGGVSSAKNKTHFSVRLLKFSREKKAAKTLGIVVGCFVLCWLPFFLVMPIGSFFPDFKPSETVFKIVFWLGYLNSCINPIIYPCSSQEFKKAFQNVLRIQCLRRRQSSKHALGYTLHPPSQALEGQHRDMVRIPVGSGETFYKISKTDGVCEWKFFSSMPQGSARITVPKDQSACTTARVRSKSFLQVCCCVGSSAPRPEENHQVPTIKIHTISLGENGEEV

D(3) dopamine receptor = D(3) dopamine receptor (Homo sapiens, UniProt P35462); test: DRUGMATRIX: Dopamine D3 radioligand binding (ligand: [3H] Spiperone); format: cell membranes, CHO, Membrane; conditions: for pIC50: read-out: IC50; for pKi: read-out: Ki
D(3) dopamine receptor, sequence (P35462 whole entry): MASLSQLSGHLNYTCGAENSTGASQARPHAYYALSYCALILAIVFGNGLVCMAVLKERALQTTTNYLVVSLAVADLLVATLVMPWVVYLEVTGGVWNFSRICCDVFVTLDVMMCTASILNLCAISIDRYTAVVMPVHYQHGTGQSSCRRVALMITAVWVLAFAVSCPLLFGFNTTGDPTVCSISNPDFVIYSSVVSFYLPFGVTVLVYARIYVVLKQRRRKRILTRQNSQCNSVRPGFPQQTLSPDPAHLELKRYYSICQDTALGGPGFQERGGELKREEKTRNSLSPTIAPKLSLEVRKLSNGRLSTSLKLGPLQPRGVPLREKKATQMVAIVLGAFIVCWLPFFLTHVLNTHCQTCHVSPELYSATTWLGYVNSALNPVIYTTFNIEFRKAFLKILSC

Endothelin-1 receptor = target: T2, Endothelin-1 receptor (Homo sapiens, UniProt P25101); format: cell membranes, Membrane; conditions: cho-k1; also: in other assays of this panel Not Active means under 50% inhibition at 10 µM
T2 sequence (P25101 whole entry): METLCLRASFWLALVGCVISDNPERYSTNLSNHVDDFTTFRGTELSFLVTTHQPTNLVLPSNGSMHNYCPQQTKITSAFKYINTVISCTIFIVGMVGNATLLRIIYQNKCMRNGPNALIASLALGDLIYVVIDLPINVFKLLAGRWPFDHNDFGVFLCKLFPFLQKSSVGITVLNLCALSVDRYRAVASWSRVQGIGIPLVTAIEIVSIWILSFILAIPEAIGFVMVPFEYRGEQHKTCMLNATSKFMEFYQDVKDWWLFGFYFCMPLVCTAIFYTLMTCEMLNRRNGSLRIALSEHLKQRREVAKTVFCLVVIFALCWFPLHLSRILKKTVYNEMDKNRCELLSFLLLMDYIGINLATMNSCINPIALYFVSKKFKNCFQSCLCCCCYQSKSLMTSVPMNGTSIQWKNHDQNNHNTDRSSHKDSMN

Insulin receptor = Insulin receptor (Rattus norvegicus, UniProt P15127); format: cell membranes, Wistar, Liver, Membrane; also: in other assays of this panel Not Active means under 50% inhibition at 10 µM
Insulin receptor, sequence (P15127 27-759 limits assumed): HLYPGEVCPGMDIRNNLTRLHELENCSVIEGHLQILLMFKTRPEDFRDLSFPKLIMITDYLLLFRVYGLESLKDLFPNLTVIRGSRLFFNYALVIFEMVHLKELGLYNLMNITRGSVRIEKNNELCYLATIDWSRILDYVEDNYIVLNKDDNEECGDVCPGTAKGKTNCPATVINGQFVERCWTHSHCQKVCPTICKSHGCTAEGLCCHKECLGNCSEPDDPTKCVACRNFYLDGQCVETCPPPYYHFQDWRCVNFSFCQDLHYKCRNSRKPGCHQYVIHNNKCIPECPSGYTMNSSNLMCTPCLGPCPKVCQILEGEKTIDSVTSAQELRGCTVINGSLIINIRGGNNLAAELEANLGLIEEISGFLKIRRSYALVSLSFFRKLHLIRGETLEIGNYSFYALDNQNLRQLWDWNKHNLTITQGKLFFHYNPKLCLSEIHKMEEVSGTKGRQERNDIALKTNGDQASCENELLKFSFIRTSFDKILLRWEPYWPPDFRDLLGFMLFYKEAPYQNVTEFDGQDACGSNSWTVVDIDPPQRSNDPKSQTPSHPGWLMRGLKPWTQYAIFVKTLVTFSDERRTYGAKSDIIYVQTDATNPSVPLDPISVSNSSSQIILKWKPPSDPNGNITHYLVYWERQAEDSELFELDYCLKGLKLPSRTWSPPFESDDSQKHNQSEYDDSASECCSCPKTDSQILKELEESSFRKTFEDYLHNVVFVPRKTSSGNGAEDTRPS
Insulin receptor, sequence (P15127 764-1383 limits assumed): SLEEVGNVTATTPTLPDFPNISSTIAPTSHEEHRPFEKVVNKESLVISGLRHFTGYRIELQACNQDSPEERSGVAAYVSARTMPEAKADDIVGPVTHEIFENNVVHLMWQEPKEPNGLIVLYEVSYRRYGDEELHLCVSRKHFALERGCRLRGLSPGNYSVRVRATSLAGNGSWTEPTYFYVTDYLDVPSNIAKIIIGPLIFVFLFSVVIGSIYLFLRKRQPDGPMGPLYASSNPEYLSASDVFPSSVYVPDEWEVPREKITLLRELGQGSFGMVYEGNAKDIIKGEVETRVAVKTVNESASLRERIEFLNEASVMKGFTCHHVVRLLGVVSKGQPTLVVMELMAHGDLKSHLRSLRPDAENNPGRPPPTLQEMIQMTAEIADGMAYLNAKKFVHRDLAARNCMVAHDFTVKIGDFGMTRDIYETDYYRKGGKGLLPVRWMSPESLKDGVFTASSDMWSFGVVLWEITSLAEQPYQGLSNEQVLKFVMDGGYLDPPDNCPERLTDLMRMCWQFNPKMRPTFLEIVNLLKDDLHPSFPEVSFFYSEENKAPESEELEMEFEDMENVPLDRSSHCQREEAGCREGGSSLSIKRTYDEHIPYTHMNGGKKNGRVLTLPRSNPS

[2] = target: Protein kinase C alpha type (Homo sapiens, UniProt P17252); format: cell-based; conditions: sf9;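 also: inhibition of PKCalpha kinase activity measured in an enzyme assay with histone as the phosphorylation substrate; in other assays of this panel Not Active means under 50% inhibition at 10 µM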
[3] = target: Mitogen-activated protein kinase 14 (Homo sapiens, UniProt Q16539); design: species or system Escherichia coli;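 also: inhibition of p38alpha enzyme activity in a biochemical kinase assay, with myelin basic protein serving as substrate; in other assays of this panel Not Active means under 50% inhibition at 10 µM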
Mitogen-activated protein kinase 14, sequence (Q16539 whole entry): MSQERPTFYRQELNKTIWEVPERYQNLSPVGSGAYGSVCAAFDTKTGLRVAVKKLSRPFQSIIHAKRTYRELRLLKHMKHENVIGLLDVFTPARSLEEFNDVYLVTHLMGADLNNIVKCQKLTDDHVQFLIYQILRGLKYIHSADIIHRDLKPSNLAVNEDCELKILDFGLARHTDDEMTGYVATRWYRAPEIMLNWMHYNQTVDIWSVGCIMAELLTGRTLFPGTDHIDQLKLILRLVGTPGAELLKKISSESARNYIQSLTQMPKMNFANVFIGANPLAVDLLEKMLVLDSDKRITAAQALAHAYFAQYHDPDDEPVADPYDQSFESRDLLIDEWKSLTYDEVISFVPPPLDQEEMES

Compound	IC50 [1]	pIC50 (D(3) dopamine receptor)	pKi (D(3) dopamine receptor)	IC50 (Endothelin-1 receptor)	IC50 (Insulin receptor)	IC50 [2]	IC50 [3]	IC50 (D(3) dopamine receptor; cho)	pIC50 [1]	pKi [1]	Ki [1]	pIC50 (D(3) dopamine receptor; cho)	pKi (D(3) dopamine receptor; cho)	Ki (Endothelin-1 receptor)	Ki (Insulin receptor)	Ki [2]	Ki [3]	Ki (D(3) dopamine receptor; cho)
Clc1ccc(COC(Cn2ccnc2)c2ccc(Cl)cc2Cl)c(Cl)c1 (stereo unspecified) [MICONAZOLE]	Not Active	5.49	5.96	Not Active	Not Active	Not Active	Not Active	–	–	–	–	–	–	–	–	–	–	–
CC1CCC(NC(=O)N(CCCl)N=O)CC1 (stereo unspecified) [SEMUSTINE]	Not Active	–	–	Not Active	Not Active	Not Active	Not Active	Not Active	–	–	–	–	–	–	–	–	–	–
O=C1C[C@@H]2OCC=C3CN4CC[C@]56c7ccccc7N1[C@H]5[C@H]2[C@H]3C[C@H]46 [STRYCHNINE]	Not Active	–	–	Not Active	Not Active	Not Active	Not Active	Not Active	–	–	–	–	–	–	–	–	–	–
C[S+]([O-])c1ccc(-c2nc(-c3ccncc3)c(-c3ccc(F)cc3)[nH]2)cc1 (stereo unspecified) [SB-203580]	Not Active	–	–	Not Active	Not Active	Not Active	–	Not Active	–	–	–	–	–	–	–	–	–	–
CC(=N)S [THIOACETAMIDE]	Not Active	–	–	Not Active	Not Active	Not Active	Not Active	Not Active	–	–	–	–	–	–	–	–	–	–
COC(=O)[C@H]1[C@H]2C[C@@H]3c4[nH]c5cc(OC)ccc5c4CCN3C[C@H]2C[C@@H](OC(=O)c2cc(OC)c(OC)c(OC)c2)[C@@H]1OC [RESERPINE]	Not Active	–	–	Not Active	Not Active	Not Active	Not Active	Not Active	–	–	–	–	–	–	–	–	–	–
O=c1[nH]c(=O)n(C2CCCO2)cc1F (stereo unspecified) [TEGAFUR]	Not Active	–	–	Not Active	Not Active	Not Active	Not Active	Not Active	–	–	–	–	–	–	–	–	–	–
C[N+](C)(C)CCOC(=O)CCC(=O)OCC[N+](C)(C)C.[Cl-].[Cl-] [SUCCINYLCHOLINE CHLORIDE]	Not Active	–	–	Not Active	Not Active	Not Active	Not Active	Not Active	–	–	–	–	–	–	–	–	–	–
CCCCC(=O)N(Cc1ccc(-c2ccccc2-c2nnn[nH]2)cc1)[C@H](C(=O)O)C(C)C	Not Active	–	–	Not Active	Not Active	Not Active	Not Active	Not Active	–	–	–	–	–	–	–	–	–	–
CN1CCN(C2=Nc3cc(Cl)ccc3Nc3ccccc32)CC1 [CLOZAPINE]	–	–	–	Not Active	Not Active	Not Active	Not Active	–	–	–	–	–	–	–	–	–	–	–
Oc1ccc2c3c1O[C@H]1[C@@H](O)CC[C@@]4(O)[C@@H](C2)N(CC2CCC2)CC[C@]314 [NALBUPHINE]	Not Active	–	–	Not Active	Not Active	Not Active	Not Active	Not Active	–	–	–	–	–	–	–	–	–	–
CN(C)C(=O)C(CCN1CCC(O)(c2ccc(Cl)cc2)CC1)(c1ccccc1)c1ccccc1 [LOPERAMIDE]	–	5.87	6.34	Not Active	Not Active	Not Active	Not Active	–	5.21	5.60	–	–	–	–	–	–	–	–
O=C(O)c1ccccc1O [SALICYLIC ACID]	Not Active	–	–	Not Active	Not Active	Not Active	Not Active	Not Active	–	–	–	–	–	–	–	–	–	–
Nc1ccc(S(=O)(=O)NC(=O)c2ccccc2)cc1 [SULFABENZAMIDE]	Not Active	–	–	Not Active	Not Active	Not Active	Not Active	Not Active	–	–	–	–	–	–	–	–	–	–
C[C@@](Cc1ccc(O)c(O)c1)(NN)C(=O)O.O [CARBIDOPA]	Not Active	–	–	Not Active	Not Active	Not Active	Not Active	Not Active	–	–	–	–	–	–	–	–	–	–
CCCCCCCCNC(C)C(O)c1ccc(SC(C)C)cc1 (stereo unspecified) [SULOCTIDIL]	Not Active	5.68	6.15	Not Active	Not Active	Not Active	Not Active	–	–	–	–	–	–	–	–	–	–	–
CN1CCN(CCCN2c3ccccc3Sc3ccc(C(F)(F)F)cc32)CC1 [TRIFLUOPERAZINE]	Not Active	–	–	Not Active	Not Active	Not Active	Not Active	Not Active	–	–	–	–	–	–	–	–	–	–
C[C@]12C=CC(=O)C=C1CC[C@@H]1[C@@H]2C(=O)C[C@@]2(C)[C@H]1CC[C@]2(O)C(=O)CO [PREDNISONE]	Not Active	–	–	Not Active	Not Active	Not Active	Not Active	Not Active	–	–	–	–	–	–	–	–	–	–
OCCOCCN1CCN(C2=Nc3ccccc3Sc3ccccc32)CC1 [QUETIAPINE]	–	–	–	Not Active	Not Active	Not Active	Not Active	–	–	–	–	–	–	–	–	–	–	–
CC(C)NC[C@H](O)COc1cccc2ccccc12 [LEVOPROPRANOLOL]	Not Active	–	–	Not Active	Not Active	Not Active	Not Active	Not Active	–	–	–	–	–	–	–	–	–	–
O=C(O)CCCCC1CCSS1 (stereo not drawn) [LIPOIC ACID, ALPHA]	Not Active	–	–	Not Active	Not Active	Not Active	Not Active	Not Active	–	–	–	–	–	–	–	–	–	–
CC(C)NC[C@@H](O)COc1cccc2ccccc12 [DEXPROPRANOLOL]	Not Active	–	–	Not Active	Not Active	Not Active	Not Active	Not Active	–	–	–	–	–	–	–	–	–	–
Cc1ccc(C(=O)c2ccc(CC(=O)O)n2C)cc1 [TOLMETIN]	Not Active	–	–	Not Active	Not Active	Not Active	Not Active	Not Active	–	–	–	–	–	–	–	–	–	–
CC(=O)OCC(COC(C)=O)OC(C)=O [TRIACETIN]	Not Active	–	–	Not Active	Not Active	Not Active	Not Active	Not Active	–	–	–	–	–	–	–	–	–	–
TRANSPLATIN	Not Active	–	–	Not Active	Not Active	Not Active	Not Active	–	–	–	Not Active	5.48	5.95	Not Active	Not Active	Not Active	Not Active	–
O=C(O)COc1ccc(C(=O)c2cccs2)c(Cl)c1Cl	Not Active	–	–	Not Active	Not Active	Not Active	Not Active	Not Active	–	–	–	–	–	–	–	–	–	–
CN1[C@@H]2CC[C@H]1C[C@@H](OC(c1ccccc1)c1ccccc1)C2 [BENZTROPINE]	–	6.18	6.65	Not Active	Not Active	Not Active	Not Active	–	6.85	7.24	–	–	–	–	–	–	–	–
ZIRCONIUM(IV) CHLORIDE	Not Active	–	–	Not Active	Not Active	Not Active	Not Active	Not Active	–	–	Not Active	–	–	Not Active	Not Active	Not Active	Not Active	Not Active
